According to patent US9464060B2, “Compounds” (TAKEDA PHARMACEUTICAL COMPANY LIMITED, priority 2013, dated 2016):

The compounds below were run against LPA5 receptor (Homo sapiens (Human), UniProt Q9H1C0) (assay: In vitro LPA5 receptor assay (LPA-driven intracellular calcium release, FLIPR)). Conditions: RH7777 cells expressing human LPA5 receptors; LPA at EC90.
Assay type: cell-based
Procedure: In Vitro LPA5 Receptor Assay
Engagement of the LPA5 receptor by its ligand, oleoyl-L-α-lysophosphatidic acid (LPA), leads to the release of intracellular stores of calcium into the cytoplasm mediated through a Gq-driven increase in inositol triphosphate (IP3) levels. Gq is a heterotrimeric G protein subunit that activates phospholipase C.
The ability of test compounds to prevent LPA-driven intracellular release of stored calcium from RH7777 cells expressing human LPA5 receptors was assayed by stimulating the cells with LPA in the presence of various test compounds to measure the test compounds'antagonism, i.e. activity in vitro.
Approximately 10,000 cells in normal culture medium (Minimal Essential Media, 10% Foetal Calf Serum) were dispensed per assay well in a black clear bottom poly-D-lysine coated 384 well plate (Corning). Cells were allowed to settle for thirty minutes at room temperature before being incubated overnight at 37° C., 5% CO2. Sixteen to twenty hours after dispensing, the cells were loaded with a calcium-sensitive fluorescent dye by replacing the culture medium with assay buffer (1× Hanks buffered saline, 25 mM HEPES, 0.1% w/v fatty acid free BSA (bovine serum albumin), pH7.4) containing 1.25 mM probenecid and 1× Calcium 5 Reagent (Molecular Devices). Cells were incubated at 37° C. for one hour to allow for dye uptake.
To test for antagonist activity, test compounds at a final concentration range between 0.32 nM-10 μM (diluted in assay buffer) were added to the assay wells and allowed to incubate for fifteen minutes. […] Ligand-dependent changes in intracellular calcium levels were determined by measuring changes in fluorescence of the dye over […] following excitation over […].

Sequence of LPA5 receptor (Q9H1C0 whole entry): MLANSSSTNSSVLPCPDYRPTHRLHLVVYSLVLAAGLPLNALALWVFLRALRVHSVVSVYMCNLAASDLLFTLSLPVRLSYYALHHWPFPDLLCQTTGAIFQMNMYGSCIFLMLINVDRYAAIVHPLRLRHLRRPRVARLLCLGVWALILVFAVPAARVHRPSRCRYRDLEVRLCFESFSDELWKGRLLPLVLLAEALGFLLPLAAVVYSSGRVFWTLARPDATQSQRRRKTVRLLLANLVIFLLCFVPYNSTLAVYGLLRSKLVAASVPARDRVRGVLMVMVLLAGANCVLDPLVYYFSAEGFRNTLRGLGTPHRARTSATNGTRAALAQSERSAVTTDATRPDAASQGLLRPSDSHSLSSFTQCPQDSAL

| SMILES | IC50 |
| --- | --- |
| O=C(O)c1ccc(CN(CC2CC2)C(=O)c2ccc(Oc3ccccc3Cl)cc2)cc1 [Example 35, 4-((4-(2-Chlorophenoxy)-N-(cyclopropylmethyl)benzamido)-methyl)benzoic acid] | 7 nM |
| O=C(O)c1ccc(CN(CCC2CCC2)C(=O)c2ccc(Oc3ccccc3F)cc2)cc1 [Example 10, 4-((N-(2-Cyclobutylethyl)-4-(2-fluorophenoxy)benzamido)-methyl)benzoic acid] | 48 nM |
| CCN(Cc1ccc(C(=O)O)cc1)C(=O)c1ccc(Oc2ccccc2F)cc1 [Example 1, 4-((N-Ethyl-4-(2-fluorophenoxy)benzamido)methyl)benzoic acid] | 840 nM |
| CCOc1ccccc1Oc1ccc(C(=O)N(Cc2ccc(C(=O)O)cc2)CC2CC2)cc1 [Example 34, 4-((N-(Cyclopropylmethyl)-4-(2-ethoxyphenoxy)-benzamido)methyl)benzoic acid] | 460 nM |
| COc1ccccc1O[C@H]1CC[C@H](C(=O)N(Cc2ccccc2)Cc2ccc(C(=O)O)cc2)CC1 [Example 56, trans-4-((N-Benzyl-4-(2-methoxyphenoxy)cyclohexanecarboxamido)methyl)benzoic acid] | 180 nM |
| COC1CC(CN(Cc2ccc(C(=O)O)cc2)C(=O)c2ccc(Oc3ccccc3F)cc2)C1 (centres unmarked) [Example 7, 4-((4-(2-Fluorophenoxy)-N-((3-methoxycyclobutyl)methyl)-benzamido)methyl)benzoic acid] | 31 nM |
| O=C(O)c1ccc(CN(Cc2ccccc2)C(=O)c2ccc(Oc3c(F)cccc3F)cc2)cc1 [Example 39, 4-((N-Benzyl-4-(2,6-difluorophenoxy)benzamido)methyl)benzoic acid] | 11 nM |
| O=C(O)c1ccc(CN(CC2CCC2)C(=O)c2ccc(Oc3ccccc3F)cc2)cc1 [Example 6, 4-((N-(Cyclobutylmethyl)-4-(2-fluorophenoxy)benzamido)-methyl)benzoic acid] | 24 nM |
| O=C(O)c1ccc(CN(CC2CC2)C(=O)c2ccc(Oc3c(F)cccc3Cl)cc2)cc1 [Example 42, 4-((4-(2-Chloro-6-fluorophenoxy)-N-(cyclopropylmethyl)-benzamido)methyl)benzoic acid] | 17 nM |
| COc1cccc(CN(Cc2ccc(C(=O)O)c(F)c2)C(=O)c2ccc(Oc3ccccc3F)cc2)c1 [Example 59, 2-Fluoro-4-((4-(2-fluorophenoxy)-N-(3-methoxybenzyl)benzamido)methyl)benzoic acid] | 6 nM |
| Cc1cccc(F)c1Oc1ccc(C(=O)N(Cc2ccc(C(=O)O)cc2)CC2CCC2)cc1 [Example 41, 4-((N-(Cyclobutylmethyl)-4-(2-fluoro-6-methylphenoxy)benzamido)methyl)benzoic acid] | 89 nM |
| Cc1ccccc1Oc1ccc(C(=O)N(Cc2ccc(C(=O)O)cc2)CC2CCC2)cc1 [Example 23, 4-((N-(Cyclobutylmethyl)-4-(o-tolyloxy)benzamido)methyl)benzoic acid] | 44 nM |
| O=C(O)c1ccc(CN(CCc2ccccc2)C(=O)c2ccc(Oc3cccc(Cl)c3)cc2)cc1 [Example 50, 4-((4-(3-Chlorophenoxy)-N-phenethylbenzamido)methyl)benzoic acid] | 3600 nM |
| O=C(O)c1ccc(CN(CCCc2ccccc2F)C(=O)c2ccc(Oc3ccccc3F)cc2)cc1 [Example 16, 4-((4-(2-Fluorophenoxy)-N-(3-(2-fluorophenyl)propyl)benzamido)methyl)benzoic acid] | 1 nM |
| O=C(O)c1ccc(CN(Cc2ccccc2)C(=O)C2CCC(Oc3ccccc3F)CC2)cc1 (centres unmarked) [Example 55, 4-((N-Benzyl-4-(2-fluorophenoxy)cyclohexanecarboxamido)-methyl)benzoic acid] | 690 nM |
| COc1cccc(Oc2ccc(C(=O)N(CCc3ccccc3)Cc3ccc(C(=O)O)cc3)cc2)c1 [Example 48, 4-((4-(3-Methoxyphenoxy)-N-phenethylbenzamido)methyl)benzoic acid] | 3300 nM |
| O=C(O)c1ccc(CN(CCc2ccccc2)C(=O)c2ccc(Oc3ccccc3F)cc2)cc1 [Example 15, 4-((4-(2-Fluorophenoxy)-N-phenethylbenzamido)methyl)benzoic acid] | 120 nM |
| O=C(O)c1ccc(CN(Cc2ccccc2)C(=O)c2ccc(Oc3c(F)cccc3Cl)cc2)cc1 [Example 44, 4-((N-Benzyl-4-(2-chloro-6-fluorophenoxy)benzamido)-methyl)benzoic acid] | 11 nM |
| O=C(O)c1ccc(CN(CCC2CC2)C(=O)c2ccc(Oc3c(F)cccc3Cl)cc2)cc1 [Example 43, 4-((4-(2-Chloro-6-fluorophenoxy)-N-(2-cyclopropylethyl)-benzamido)methyl)benzoic acid] | 58 nM |
| O=C(O)c1ccc(CN(CC2CCC2)C(=O)c2ccc(OCc3ccccc3F)cc2)cc1 [Example 52, 4-((N-(Cyclobutylmethyl)-4-((2-fluorobenzyl)oxy)benzamido)-methyl)benzoic acid] | 370 nM |

The remaining lines, values ahead:

| IC50 | SMILES |
| --- | --- |
| 690 nM | O=C(O)c1ccc(CN(CC(F)F)C(=O)c2ccc(Oc3ccccc3F)cc2)cc1 [Example 2, 4-((N-(2,2-Difluoroethyl)-4-(2-fluorophenoxy)benzamido)-methyl)benzoic acid] |
| 11 nM | O=C(O)c1ccc(CN(CCCCc2ccccc2)C(=O)c2ccc(Oc3ccccc3F)cc2)cc1 [Example 21, 4-((4-(2-Fluorophenoxy)-N-(4-phenylbutyl)-benzamido)methyl)benzoic acid] |
| 58 nM | O=C(O)c1ccc(CN(Cc2ccccc2)C(=O)c2ccc(OCc3ccccc3F)cc2)cc1 [Example 53, 4-((N-Benzyl-4-((2-fluorobenzyl)oxy)benzamido)methyl)benzoic acid] |
| 4600 nM | COc1ccc(Oc2ccc(C(=O)N(CCc3ccccc3)Cc3ccc(C(=O)O)cc3)cc2)cc1 [Example 49, 4-((4-(4-Methoxyphenoxy)-N-phenethylbenzamido)methyl)benzol acid] |
| 53 nM | O=C(O)c1ccc(CN(CC2CC2)C(=O)c2ccc(OCc3ccccc3F)cc2)cc1 [Example 51, 4-((N-(Cyclopropylmethyl)-4-((2-fluorobenzyl)oxy)benzamido)-methyl)benzoic acid] |
| 15 nM | O=C(O)c1ccc(CN(CCC2CC2)C(=O)c2ccc(Oc3ccccc3F)cc2)cc1 [Example 9, 4-((N-(2-Cyclopropylethyl)-4-(2-fluorophenoxy)benzamido)-methyl)benzoic acid] |
| 260 nM | O=C(O)c1ccc(CN(CCc2ccccc2)C(=O)c2ccc(Oc3ccccc3C(F)(F)F)cc2)cc1 [Example 26, 4-((N-Phenethyl-4-(2-(trifluoromethyl)phenoxy)benzamido)-methyl)benzoic acid] |
| 200 nM | N#Cc1ccccc1Oc1ccc(C(=O)N(Cc2ccccc2)Cc2ccc(C(=O)O)cc2)cc1 [Example 27, 4-((N-Benzyl-4-(2-cyanophenoxy)benzamido)methyl)benzoic acid] |
| 9 nM | O=C(O)c1ccc(CN(Cc2ccccc2F)C(=O)c2ccc(Oc3ccccc3F)cc2)cc1 [Example 12, 4-((N-(2-Fluorobenzyl)-4-(2-fluorophenoxy)benzamido)-methyl)benzoic acid] |
